Source: patent US10807992B2, “Single enantiomer antiparasitic compounds” (priority 2017, dated 2020)

Key:
Ctenocephalides felis [1] = assay: In vitro contact activity against fleas (coated substrate); conditions: for mortality at 0.006 ppm: Trial 3, dose 0.006 ppm; for mortality at 0.024 ppm: Trial 3, dose 0.024 ppm; for mortality at 0.098 ppm: Trial 3, dose 0.098 ppm; for mortality at 0.39 ppm: Trial 3, dose 0.39 ppm; for mortality at 1.56 ppm: Trial 3, dose 1.56 ppm; for mortality at 6.25 ppm: Trial 3, dose 6.25 ppm; for mortality at 25 ppm: Trial 3, dose 25 ppm; for mortality at 100 ppm: Trial 3, dose 100 ppm
Experimental: (§1) Ctenocephalides felis (Avista Pharma, Inc., RTP, NC), 1-7days post hatch, held in an environmental chamber at 24° C., 85% humidity.
For flea contact tests, vial caps were pre-drilled with a single hole in the center of each cap to allow air exchange. A filter paper (Whatman Grade 540 2.1 cm) was placed in the lid of each vial. Pipe cleaners cut to 0.5 inches were inserted in each test vial. An aliquot was taken from each compound stock and added to an acetone/triton solution to achieve the desired top concentrations for the study. Serial dilutions were conducted from the top dose (i.e. 100 ppm) to achieve the desired concentration for EC50 and EC90 determination. The final DMSO concentration was 0.5%. A 75 μL aliquot of each compound formulation was added to each 0.5 inch pipe cleaner contained in the treatment vial. The vials were loosely capped and allowed to dry for a minimum of four hours in a chemical fume hood.
(§2) Compounds tested were C1 racemate, the C1 (R) enantiomer, and the C1 (S) enantiomer. For Trial 3, the C1 (R) enantiomer and the C1 (S) enantiomer were further chiral purified to achieve >99% purity.
(§3) For both contact and ingestion assays, ten newly emerged unfed adult fleas, 0-7 days old Ctenocephalides felis, from a laboratory colony, were aspirated into each vial or cage. The test vials for contact assays were held in an environmental chamber at 24° C., 80% humidity with light/dark cycles (12 hours each). The cages for flea ingestion assays were held in a temperature-controlled artificial feeding apparatus to allow continual access to organic bovine blood containing the desired concentration of compound. Fresh aliquots of compound-spiked bovine blood were provided daily for the duration of the study.
(§4) Fleas were evaluated for percent mortality at various time points between 2 hours and 48 hours post infestation. Fleas showing normal movement and/or jumping ability were considered viable and those showing no movement after tapping the vials were scored as dead.

Ctenocephalides felis [2] = assay: In vitro ingestion activity against fleas (artificial feeding, bovine blood); conditions: for mortality at 0.003 ppm: Trial 3, dose 0.003 ppm; for mortality at 0.012 ppm: Trial 3, dose 0.012 ppm; for mortality at 0.049 ppm: Trial 3, dose 0.049 ppm; for mortality at 0.2 ppm: Trial 3, dose 0.20 ppm; for mortality at 0.78 ppm: Trial 3, dose 0.78 ppm; for mortality at 3.125 ppm: Trial 3, dose 3.125 ppm; for mortality at 12.5 ppm: Trial 3, dose 12.5 ppm; for mortality at 50 ppm: Trial 3, dose 50 ppm
Experimental: as §1
For flea ingestion tests, serial dilutions of the compound stock were performed using DMSO to achieve the desired range for EC50 and EC90 determination. An aliquot of each compound dilution was added to organic bovine blood with a final DMSO concentration of 0.5% and placed in an artificial feeding container.
as §2, §3, §4

O=C(CC(F)(F)F)N1CC2(C1)OCc1cc(C3=NS[C@](c4cc(Cl)c(F)c(Cl)c4)(C(F)(F)F)C3)ccc12 [C1 (R) enantiomer, (R)-1-[6-[5-(3,5-dichloro-4-fluoro-phenyl)-5-(trifluoromethyl)-4H-isothiazol-3-yl]spiro[1H-isobenzofuran-3,3′-azetidine]-1′-yl]-3,3,3-trifluoro-propan-1-one]
mortality at 0.006 ppm (Ctenocephalides felis [1]; 6 h, Rep1): 0% | mortality at 0.006 ppm (Ctenocephalides felis [1]; 6 h, Rep2): 0% | mortality at 0.024 ppm (Ctenocephalides felis [1]; 6 h, Rep1): 0% | mortality at 0.024 ppm (Ctenocephalides felis [1]; 6 h, Rep2): 0% | mortality at 0.098 ppm (Ctenocephalides felis [1]; 6 h, Rep1): 0% | mortality at 0.098 ppm (Ctenocephalides felis [1]; 6 h, Rep2): 0% | mortality at 0.39 ppm (Ctenocephalides felis [1]; 6 h, Rep1): 0% | mortality at 0.39 ppm (Ctenocephalides felis [1]; 6 h, Rep2): 0% | mortality at 1.56 ppm (Ctenocephalides felis [1]; 6 h, Rep1): 0% | mortality at 1.56 ppm (Ctenocephalides felis [1]; 6 h, Rep2): 0% | mortality at 6.25 ppm (Ctenocephalides felis [1]; 6 h, Rep1): 0% | mortality at 6.25 ppm (Ctenocephalides felis [1]; 6 h, Rep2): 0% | mortality at 25 ppm (Ctenocephalides felis [1]; 6 h, Rep1): 0% | mortality at 25 ppm (Ctenocephalides felis [1]; 6 h, Rep2): 0% | mortality at 100 ppm (Ctenocephalides felis [1]; 6 h, Rep1): 0% | mortality at 100 ppm (Ctenocephalides felis [1]; 6 h, Rep2): 0% | mortality at 0.006 ppm (Ctenocephalides felis [1]; 24 h, Rep1): 0% | mortality at 0.006 ppm (Ctenocephalides felis [1]; 24 h, Rep2): 0% | mortality at 0.024 ppm (Ctenocephalides felis [1]; 24 h, Rep1): 0% | mortality at 0.024 ppm (Ctenocephalides felis [1]; 24 h, Rep2): 0% | mortality at 0.098 ppm (Ctenocephalides felis [1]; 24 h, Rep1): 0% | mortality at 0.098 ppm (Ctenocephalides felis [1]; 24 h, Rep2): 0% | mortality at 0.39 ppm (Ctenocephalides felis [1]; 24 h, Rep1): 0% | mortality at 0.39 ppm (Ctenocephalides felis [1]; 24 h, Rep2): 0% | mortality at 1.56 ppm (Ctenocephalides felis [1]; 24 h, Rep1): 0% | mortality at 1.56 ppm (Ctenocephalides felis [1]; 24 h, Rep2): 0% | mortality at 6.25 ppm (Ctenocephalides felis [1]; 24 h, Rep1): 0% | mortality at 6.25 ppm (Ctenocephalides felis [1]; 24 h, Rep2): 0% | mortality at 25 ppm (Ctenocephalides felis [1]; 24 h, Rep1): 0% | mortality at 25 ppm (Ctenocephalides felis [1]; 24 h, Rep2): 0% | mortality at 100 ppm (Ctenocephalides felis [1]; 24 h, Rep1): 0% | mortality at 100 ppm (Ctenocephalides felis [1]; 24 h, Rep2): 0% | mortality at 0.006 ppm (Ctenocephalides felis [1]; 48 h, Rep1): 0% | mortality at 0.006 ppm (Ctenocephalides felis [1]; 48 h, Rep2): 0% | mortality at 0.024 ppm (Ctenocephalides felis [1]; 48 h, Rep1): 0% | mortality at 0.024 ppm (Ctenocephalides felis [1]; 48 h, Rep2): 0% | mortality at 0.098 ppm (Ctenocephalides felis [1]; 48 h, Rep1): 0% | mortality at 0.098 ppm (Ctenocephalides felis [1]; 48 h, Rep2): 0% | mortality at 0.39 ppm (Ctenocephalides felis [1]; 48 h, Rep1): 0% | mortality at 0.39 ppm (Ctenocephalides felis [1]; 48 h, Rep2): 0% | mortality at 1.56 ppm (Ctenocephalides felis [1]; 48 h, Rep1): 0% | mortality at 1.56 ppm (Ctenocephalides felis [1]; 48 h, Rep2): 0% | mortality at 6.25 ppm (Ctenocephalides felis [1]; 48 h, Rep1): 0% | mortality at 6.25 ppm (Ctenocephalides felis [1]; 48 h, Rep2): 0% | mortality at 25 ppm (Ctenocephalides felis [1]; 48 h, Rep1): 0% | mortality at 25 ppm (Ctenocephalides felis [1]; 48 h, Rep2): 0% | mortality at 100 ppm (Ctenocephalides felis [1]; 48 h, Rep1): 0% | mortality at 100 ppm (Ctenocephalides felis [1]; 48 h, Rep2): 0% | mortality at 0.003 ppm (Ctenocephalides felis [2]; 6 h, Rep1): 0% | mortality at 0.003 ppm (Ctenocephalides felis [2]; 6 h, Rep2): 0% | mortality at 0.012 ppm (Ctenocephalides felis [2]; 6 h, Rep1): 0% | mortality at 0.012 ppm (Ctenocephalides felis [2]; 6 h, Rep2): 0% | mortality at 0.049 ppm (Ctenocephalides felis [2]; 6 h, Rep1): 0% | mortality at 0.049 ppm (Ctenocephalides felis [2]; 6 h, Rep2): 0% | mortality at 0.2 ppm (Ctenocephalides felis [2]; 6 h, Rep1): 0% | mortality at 0.2 ppm (Ctenocephalides felis [2]; 6 h, Rep2): 0% | mortality at 0.78 ppm (Ctenocephalides felis [2]; 6 h, Rep1): 0% | mortality at 0.78 ppm (Ctenocephalides felis [2]; 6 h, Rep2): 0% | mortality at 3.125 ppm (Ctenocephalides felis [2]; 6 h, Rep1): 0% | mortality at 3.125 ppm (Ctenocephalides felis [2]; 6 h, Rep2): 20% | mortality at 12.5 ppm (Ctenocephalides felis [2]; 6 h, Rep1): 80% | mortality at 12.5 ppm (Ctenocephalides felis [2]; 6 h, Rep2): 40% | mortality at 50 ppm (Ctenocephalides felis [2]; 6 h, Rep1): 100% | mortality at 50 ppm (Ctenocephalides felis [2]; 6 h, Rep2): 100% | mortality at 0.003 ppm (Ctenocephalides felis [2]; 24 h, Rep1): 0% | mortality at 0.003 ppm (Ctenocephalides felis [2]; 24 h, Rep2): 0% | mortality at 0.012 ppm (Ctenocephalides felis [2]; 24 h, Rep1): 0% | mortality at 0.012 ppm (Ctenocephalides felis [2]; 24 h, Rep2): 0% | mortality at 0.049 ppm (Ctenocephalides felis [2]; 24 h, Rep1): 0% | mortality at 0.049 ppm (Ctenocephalides felis [2]; 24 h, Rep2): 0% | mortality at 0.2 ppm (Ctenocephalides felis [2]; 24 h, Rep1): 0% | mortality at 0.2 ppm (Ctenocephalides felis [2]; 24 h, Rep2): 0% | mortality at 0.78 ppm (Ctenocephalides felis [2]; 24 h, Rep1): 0% | mortality at 0.78 ppm (Ctenocephalides felis [2]; 24 h, Rep2): 0% | mortality at 3.125 ppm (Ctenocephalides felis [2]; 24 h, Rep1): 0% | mortality at 3.125 ppm (Ctenocephalides felis [2]; 24 h, Rep2): 0% | mortality at 12.5 ppm (Ctenocephalides felis [2]; 24 h, Rep1): 80% | mortality at 12.5 ppm (Ctenocephalides felis [2]; 24 h, Rep2): 40% | mortality at 50 ppm (Ctenocephalides felis [2]; 24 h, Rep1): 100% | mortality at 50 ppm (Ctenocephalides felis [2]; 24 h, Rep2): 100% | mortality at 0.003 ppm (Ctenocephalides felis [2]; 48 h, Rep1): 0% | mortality at 0.003 ppm (Ctenocephalides felis [2]; 48 h, Rep2): 0% | mortality at 0.012 ppm (Ctenocephalides felis [2]; 48 h, Rep1): 0% | mortality at 0.012 ppm (Ctenocephalides felis [2]; 48 h, Rep2): 0% | mortality at 0.049 ppm (Ctenocephalides felis [2]; 48 h, Rep1): 0% | mortality at 0.049 ppm (Ctenocephalides felis [2]; 48 h, Rep2): 0% | mortality at 0.2 ppm (Ctenocephalides felis [2]; 48 h, Rep1): 0% | mortality at 0.2 ppm (Ctenocephalides felis [2]; 48 h, Rep2): 0% | mortality at 0.78 ppm (Ctenocephalides felis [2]; 48 h, Rep1): 0% | mortality at 0.78 ppm (Ctenocephalides felis [2]; 48 h, Rep2): 0% | mortality at 3.125 ppm (Ctenocephalides felis [2]; 48 h, Rep1): 0% | mortality at 3.125 ppm (Ctenocephalides felis [2]; 48 h, Rep2): 0% | mortality at 12.5 ppm (Ctenocephalides felis [2]; 48 h, Rep1): 90% | mortality at 12.5 ppm (Ctenocephalides felis [2]; 48 h, Rep2): 60% | mortality at 50 ppm (Ctenocephalides felis [2]; 48 h, Rep1): 100% | mortality at 50 ppm (Ctenocephalides felis [2]; 48 h, Rep2): 100%
